These are literature values, as cited in patent US9072916B2, “Aqueous anti-perspiration formulation” (BEIERSDORF AG, priority 2004, dated 2015).

For the data set the following is noted: in water, alcohol, ether and 2-propanol.

Take `O=C(O)C(O)c1ccccc1` (stereo not shown) [Mandelic acid, mandelic acid]: the solubility result is “readily soluble”.
